Legend:
[1] = target: T1, RAD51 (Homo sapiens, UniProt Q06609); experiment: B02 binding to RAD51 by SPR; conditions: absence of ATP
T1 construct: made in house
T1 sequence (Q06609 1-339): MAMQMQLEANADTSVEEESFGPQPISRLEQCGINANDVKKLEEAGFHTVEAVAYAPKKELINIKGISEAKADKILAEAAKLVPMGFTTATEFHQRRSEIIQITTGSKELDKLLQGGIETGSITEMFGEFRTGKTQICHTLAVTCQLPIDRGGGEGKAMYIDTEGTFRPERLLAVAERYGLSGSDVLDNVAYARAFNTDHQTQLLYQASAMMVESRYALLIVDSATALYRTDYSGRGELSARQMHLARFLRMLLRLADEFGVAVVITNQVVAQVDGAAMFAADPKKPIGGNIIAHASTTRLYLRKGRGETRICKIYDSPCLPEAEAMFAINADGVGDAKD
Method: Data were analyzed using the ProteOn Manager Software version 3.0 (Bio-Rad).

[2] = target: T1, RAD51; experiment: D-loop assay for RAD51; type: biochemical; conditions: compounds 100 μM; RAD51 1 μM
Method: When indicated, chemical compounds in question were added in specified concentrations and incubation was continued for 30 min at 37° C. D-loop formation was initiated by addition of supercoiled pUC19 dsDNA (50 μM, nt) and continued for 15 min. Reactions were stopped by addition of SDS to 1% (w/v) and proteinase K to 880 μg ml^−1 followed by incubation for 15 min at 37° C. […] The yield of joint molecules was expressed as a percentage of the total plasmid DNA.
The reaction was deproteinized and analyzed as described above.
(§1) IC50 values were calculated using GraphPad Prism V5.0 software and the sigmoidal dose-response function. The data were obtained from three independent repeats of experiments.

[3] = target: T2, RecA (Escherichia coli, UniProt P0A7G6); experiment: biochemical; parameters: species or system E. coli
T2 construct: purchased USB Inc. (Cleveland, Ohio)
Method: (Mazin et al., 2000, EMBO J. 19:1148-56). When indicated, chemical compounds in specified concentrations were added and incubation was continued for 30 min at 37° C. D-loop formation was initiated by addition of supercoiled pUC19 dsDNA (50 μM, nt) and carried out for 3 min at 37° C. The DNA products were deproteinized and analyzed as described above for the Rad51-promoted reaction.
as §1

T2 sequence (P0A7G6 whole entry): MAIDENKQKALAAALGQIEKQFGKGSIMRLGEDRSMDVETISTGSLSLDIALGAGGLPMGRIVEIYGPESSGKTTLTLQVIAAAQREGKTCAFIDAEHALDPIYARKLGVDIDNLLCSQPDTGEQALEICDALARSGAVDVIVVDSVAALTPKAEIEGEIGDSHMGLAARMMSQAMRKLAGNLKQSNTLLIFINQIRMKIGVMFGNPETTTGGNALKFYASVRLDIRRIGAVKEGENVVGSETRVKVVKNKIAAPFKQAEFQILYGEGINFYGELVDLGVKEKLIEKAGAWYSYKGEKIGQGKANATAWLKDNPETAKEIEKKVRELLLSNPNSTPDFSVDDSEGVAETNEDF

O=c1c2ccccc2nc(/C=C/c2cccnc2)n1Cc1ccccc1 [Compound B02, (E)-3-benzyl-2-(2-(pyridin-3-yl)vinyl)quinazolin-4(3H)-one]
kd [1]: 2.5 (±0.3)×10^−2 s^−1
Joint Molecules (%) [2]: 6.0 ± 0.5%
IC50 ([3]; IC50 (RecA), RecA 1 μM, ssDNA 3 μM, dsDNA 50 μM): > 250 µM
IC50 ([3]; IC50 for RecA (D-loop), RecA 0.3 μM, ssDNA 0.9 μM, dsDNA 15 μM, B02 incubated with protein before ssDNA): > 100 µM
inhibition of RecA DNA strand exchange, in words ([3]; up to 250 μM): no significant inhibition
